The target of assay [1] is T1, PSMA (Homo sapiens, UniProt Q04609). Nature of the assay: PSMA competitive binding, PC-3 PIP cells with [125I]MIP-1095. On the set-up: expressed in transfected cells; host or cells: PC-3 PIP cells. The note with it: n = 3 (a: n = 2); read-out: IC50 *(PC-3 PIP cells and [125I]MIP-1095). On the procedure: (§1) In vitro binding assays were carried out to determine the PSMA binding affinity of various compounds. By incubating PSMA positive cells either with: 1). LNCaP with 0.2 nM [^68Ga]PSMA-11 or [^125I]MIP-1095, as the ligand, in the presence of 10 different concentrations of competing ligands; non-specific binding was defined with 20 μM 2-PMPA (2-(phosphonomethyl)pentanedioic acid); or 2). PC-3 PIP cells with [^125I]MIP-1095 (0.18 nM diluted in PBS) in presence of different concentration of test compounds ([…] diluted in PBS containing 0.1% bovine serum albumin). Nonspecific binding (NSB) was defined with 2 μM the known PSMA inhibitor, PSMA-617. After incubation at 37° C. for 1 h, the bound and free fractions were separated by vacuum filtration through GF/B filters using a Brandel M-24R cell harvester. The filters were washed twice with cold Tris-HCl buffer (50 mM, pH=7.4), and the radioactivity on the filters was counted in a gamma counter (Wizard^2, Perkin-Elmer) with 50% efficiency. The nonspecific bound was less than 10% of the total bound. Data were analyzed using GraphPad Prism 6.0 with a nonlinear regression algorithm to obtain the half maximal inhibitory concentration (IC50).
(§2) The binding affinities to PSMA of the test compounds were measured by a competitive binding assay using either LNCap or PC-3 PIP cells suspension and the known radiotracers known to have high affinity and specificity to PSMA, [^68Ga]PSMA-11 or [^125I]MIP-1095. The IC50 values of four iodinated compounds, three DOTA, DOTAG and DOTA(GA)2 related compounds and two known PSMA inhibitors are shown in Table 1. Complexes of compound 4 and natural Ga and natural Lu were also tested. […] After labeling with radioisotope they are expected to bind to the tumor tissues over expressing PSMA binding sites.
Target sequence in this assay (Q04609 whole entry, species assumed): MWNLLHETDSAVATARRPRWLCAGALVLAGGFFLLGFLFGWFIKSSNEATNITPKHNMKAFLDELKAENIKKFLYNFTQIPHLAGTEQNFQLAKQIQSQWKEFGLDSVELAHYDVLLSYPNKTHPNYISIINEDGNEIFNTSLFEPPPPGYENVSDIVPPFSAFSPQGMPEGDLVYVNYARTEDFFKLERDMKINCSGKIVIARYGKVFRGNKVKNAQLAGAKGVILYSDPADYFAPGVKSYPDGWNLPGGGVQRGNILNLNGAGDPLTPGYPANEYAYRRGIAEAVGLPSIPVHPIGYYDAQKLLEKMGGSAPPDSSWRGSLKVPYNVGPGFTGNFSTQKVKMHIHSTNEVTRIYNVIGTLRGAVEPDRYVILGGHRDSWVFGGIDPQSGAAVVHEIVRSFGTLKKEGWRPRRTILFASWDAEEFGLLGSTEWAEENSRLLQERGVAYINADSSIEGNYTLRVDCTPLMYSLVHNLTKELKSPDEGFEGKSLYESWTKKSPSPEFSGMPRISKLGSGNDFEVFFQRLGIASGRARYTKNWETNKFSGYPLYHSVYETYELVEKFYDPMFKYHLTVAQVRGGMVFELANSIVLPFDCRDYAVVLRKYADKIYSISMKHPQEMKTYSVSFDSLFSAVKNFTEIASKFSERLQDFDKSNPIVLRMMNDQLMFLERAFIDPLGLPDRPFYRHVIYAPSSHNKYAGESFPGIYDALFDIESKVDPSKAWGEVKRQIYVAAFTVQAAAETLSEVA

Assay [2] addresses T1, PSMA. Nature of the assay: PSMA competitive binding, LNCaP cells with [68Ga]PSMA-11. Set-up: LNCaP with 0.2 nM; endogenous in cells; host or cells: LNCaP cells (suspension). The note with it: n = 3; read-out: IC50 (LNCaP human PCa cells and [68Ga]PSMA-11). On the procedure: as §1, §2
Target sequence in this assay (Q04609 whole entry): as the sequence (Q04609 whole entry, species assumed) above
The target in assay [3] is T1, PSMA. On the set-up: expressed in transfected cells; host or cells: PC-3 PIP cells. The conditions noted are these: ^131I labeled MIP-1095; read-out: PSMA binding affinity Ki; cited from earlier work.
Target sequence in this assay (Q04609 whole entry, species assumed): as above

In general, IC50 refers to the midpoint of a concentration-inhibition curve. Turning to `O=C(O)CCC(C(=O)O)N1CCN(CC(=O)O)CCN(C(CCC(=O)NCC(=O)N[C@@H](Cc2ccc(OCC(=O)N[C@@H](Cc3ccccc3)C(=O)NCCCC[C@H](NC(=O)N[C@@H](CCC(=O)O)C(=O)O)C(=O)O)cc2)C(=O)O)C(=O)O)CCN(CC(=O)O)CC1` (stereo partly drawn) [Compound 4, (4S,11S,15S)-4-benzyl-1-(4-((2S)-2-(2-(4-(4,10-bis(carboxymethyl)-7-(1,3-dicarboxypropyl)-1,4,7,10-tetraazacyclododecan-1-yl)-4-carboxybutanamido)acetamido)-2-carboxyethyl)phenoxy)-2,5,13-trioxo-3,6,12,14-tetraazaheptadecane-11,15,17-tricarboxylic acid], the IC50 on PSMA [1] was determined as 33.9 ± 2.38 nM; on PSMA [2], 28.7 ± 1.7 nM.

Take `O=C(O)CC[C@H](NC(=O)N[C@@H](CCCCNC(=O)[C@H](Cc1ccccc1)NC(=O)COc1ccc(C[C@H](NC(=O)CNC(=O)CCC(C(=O)O)N2CCN(CC(=O)O)CCN(C(CCC(=O)NCCOCCOCCNC(=O)CCCc3ccc(I)cc3)C(=O)O)CCN(CC(=O)O)CC2)C(=O)O)cc1)C(=O)O)C(=O)O` (stereo partly drawn) [Compound 7, (4S,11S,15S)-4-benzyl-1-(4-((2S)-2-carboxy-2-(2-(4-carboxy-4-(7-(1-carboxy-18-(4-iodophenyl)-4,15-dioxo-8,11-dioxa-5,14-diazaoctadecyl)-4,10-bis(carboxymethyl)-1,4,7,10-tetraazacyclododecan-1-yl)butanamido)acetamido)ethyl)phenoxy)-2,5,13-trioxo-3,6,12,14-tetraazaheptadecane-11,15,17-tricarboxylic acid]: the IC50 on PSMA [1] was found to be 13.6 ± 1.02 nM; on PSMA [2], 15.4 ± 0.8 nM. For the compound `O=C(O)CC[C@H](NC(=O)N[C@@H](CCCCNC(=O)[C@H](Cc1ccccc1)NC(=O)COc1ccc(C[C@H](NC(=O)CNC(=O)CCC(C(=O)O)N2CCN(CC(=O)O)CCN(CC(=O)O)CCN(CC(=O)O)CC2)C(=O)NCC(=O)NC(P(=O)(O)O)P(=O)(O)O)cc1)C(=O)O)C(=O)O` (stereo partly drawn) [Compound 51, (((1S)-1-Carboxy-5-((2S)-2-(2-(4-((2S)-2-(2-(4-carboxy-4-(4,7,10-tris(carboxymethyl)-1,4,7,10-tetraazacyclododecan-1-yl)butanamido)acetamido)-3-((2-((diphosphonomethyl)amino)-2-oxoethyl)amino)-3-oxopropyl)phenoxy)acetamido)-3-phenylpropanamido)pentyl)carbamoyl)-L-glutamic acid], the IC50 at PSMA [2] worked out at 10.7 ± 1.6 nM. One may read the Ki as the dissociation constant of the complex between target and ligand, obtained from inhibition or displacement. With `O=C(O)CC[C@H](NC(=O)N[C@@H](CCCCNC(=O)Nc1ccc(I)cc1)C(=O)O)C(=O)O` [MIP-1095], the Ki at PSMA [3] was 4.6 nM. As for `O=C(O)CC[C@H](NC(=O)N[C@@H](CCCCNC(=O)[C@H](Cc1ccc2ccccc2c1)NC(=O)[C@H]1CC[C@H](CNC(=O)CN2CCN(CC(=O)O)CCN(CC(=O)O)CCN(CC(=O)O)CC2)CC1)C(=O)O)C(=O)O` [PSMA-617, 2-[3-(1-Carboxy-5-(3-naphthalen-2-yl-2-[(4-([2-(4,7,10-tris-carboxymethyl-1,4,7,10-tetraaza-cyclododec-1-yl)-acetylamino]-methyl)-cyclohexanecarbonyl)-amino]-Propionylamino)-pentyl)-ureido]-pentanedioic acid, reference compound], the figures for the IC50 at PSMA [1] and on PSMA [2] were 10.9 ± 0.37 nM and 11.1 ± 0.8 nM, respectively.

Source of the values: patent US20220125959A1, “PROSTATE-SPECIFIC MEMBRANE ANTIGEN (PSMA) INHIBITORS AS DIAGNOSTIC AND RADIONUCLIDE THERAPEUTIC AGENTS” (FIVE ELEVEN PHARMA INC., priority 2019, published 2022).
